Assay results as given in article PMC8805605, “Discovery of Dimeric Arylsulfonamides as Potent ADAM8 Inhibitors” (ACS Medicinal Chemistry Letters, 2021).

Experiments:
MMP-9 = molecular target: T1, MMP-9 (Homo sapiens, UniProt P14780); assay: MMP-9 fluorometric inhibition assay; format: biochemical; conditions: mean of three independent experiments in duplicate, read-out: In vitro inhibitory activity IC50 on MMP-9
T1 construct: purchased Calbiochem (Merck-Millipore)
Description: The newly synthesized bivalent derivatives 1–3 were then tested in vitro on human recombinant ADAM8 in comparison with JG26 by a fluorometric assay. The inhibitory activity against a panel of MMPs and ADAM10/17 was determined as well to assess their selectivity profile. […]
VI. Biological Activity on Isolated Enzymes
MMP and ADAM10 inhibition assays.
Recombinant human MMP-14 catalytic domain was a kind gift of Prof. Gillian Murphy (Department of […]
Oncology, University of Cambridge, UK). Pro-MMP-1, pro-MMP-2, and pro-MMP-9, were purchased […]
from Calbiochem (Merck-Millipore). Pro-MMP-12 and ADAM10 were purchased from R&D Systems.
Proenzymes were activated immediately prior to use with p-aminophenylmercuric acetate (APMA 2 […]
mM for 1 h at 37°C for MMP-2 and MMP-1, 1 mM for 1 h at 37°C for MMP-9). Pro-MMP-12 was […]
auto activated by incubating in the fluorometric assay buffer (FAB: Tris 50 mM, pH = 7.5, NaCl 150 […]
mM, CaCl2 10 mM, Brij 35 0.05% and DMSO 1%) for 30 h at 37°C. For assay measurements, each […]
inhibitor stock solution (DMSO, 10 mM) was further diluted in FAB at seven different concentrations.
Activated enzyme (final concentration 0.56 nM for MMP-2, 1.3 nM for MMP-9, 1.0 nM for MMP- […]
14cd, 2.0 nM for MMP-1, 2.3 nM for MMP-12 and 20 nM for ADAM10) and inhibitor solutions were […]
incubated in the assay buffer for 3 h at 25 °C. ADAM10 was incubated for 1 h at 37°C in a different […]
buffer at pH 9 (Tris 25 mM, ZnCl2 25 µM, Brij-35 0.005 %). After the addition of 200 µM solution of […]
the fluorogenic substrate Mca-Lys-Pro-Leu-Gly-Leu-Dap(Dnp)-Ala-Arg-NH2 (Bachem) for all the […]
enzymes in DMSO (final concentration 2 µM for all enzymes, 10 µM for ADAM10), the hydrolysis […]
was monitored every 10 sec. for 15 min. recording the increase in fluorescence (λ ex = 325 nm, λ em = […]
400 nm) using a Molecular Devices SpectraMax Gemini XPS plate reader. The assays were performed […]
in triplicate in a total volume of 200 μL per well in 96-well microtitre plates (Corning, black, NBS).
Control wells lack inhibitor. The MMP inhibition activity was expressed in relative fluorescent units […]
(RFU). Percent of inhibition was calculated from control reactions without the inhibitor. IC50 was determined using the formula: v i/v o = 1/(1 + [I]/ IC50), where v i is the initial velocity of substrate cleavage in the presence of the inhibitor at concentration [I] and v o is the initial velocity in the absence of the inhibitor. Results were analyzed using SoftMax Pro software (version 5.4.3, Molecular Devices, Sunnyvale, CA) and Prism Software version 5.0 (GraphPad Software, Inc., La Jolla, CA, USA). […]

human recombinant ADAM8 = molecular target: T2, human recombinant ADAM8 (Homo sapiens, UniProt P78325); assay: ADAM8 fluorometric inhibition assay; format: biochemical; conditions: for IC50: human recombinant enzyme, fluorometric assay, mean of three independent experiments in duplicate, read-out: In vitro inhibitory activity IC50 on ADAM8
T2 construct: kind gift of Franka Scharfenberg, University of Kiel
T2 sequence (P78325 17-824): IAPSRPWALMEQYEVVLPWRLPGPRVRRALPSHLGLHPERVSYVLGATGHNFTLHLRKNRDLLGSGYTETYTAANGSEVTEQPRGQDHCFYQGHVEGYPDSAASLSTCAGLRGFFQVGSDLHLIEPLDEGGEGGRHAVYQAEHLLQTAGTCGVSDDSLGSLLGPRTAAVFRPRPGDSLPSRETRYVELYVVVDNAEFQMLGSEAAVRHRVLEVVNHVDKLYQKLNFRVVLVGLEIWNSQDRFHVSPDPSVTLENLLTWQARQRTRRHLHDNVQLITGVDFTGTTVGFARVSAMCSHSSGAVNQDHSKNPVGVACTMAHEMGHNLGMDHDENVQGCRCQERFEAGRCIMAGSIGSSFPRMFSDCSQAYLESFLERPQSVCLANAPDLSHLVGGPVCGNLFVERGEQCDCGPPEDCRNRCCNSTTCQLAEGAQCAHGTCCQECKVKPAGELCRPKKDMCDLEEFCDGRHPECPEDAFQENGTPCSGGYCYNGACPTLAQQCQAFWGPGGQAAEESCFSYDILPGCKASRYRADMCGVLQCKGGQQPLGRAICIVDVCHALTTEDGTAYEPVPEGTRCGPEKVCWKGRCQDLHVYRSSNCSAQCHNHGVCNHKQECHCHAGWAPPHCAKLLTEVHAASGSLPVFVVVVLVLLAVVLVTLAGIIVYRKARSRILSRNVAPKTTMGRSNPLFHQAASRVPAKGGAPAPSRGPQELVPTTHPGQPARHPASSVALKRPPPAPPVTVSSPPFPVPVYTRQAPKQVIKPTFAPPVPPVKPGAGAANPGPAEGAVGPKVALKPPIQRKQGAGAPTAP
Description: The newly synthesized bivalent derivatives 1–3 were then tested in vitro on human recombinant ADAM8 in comparison with JG26 by a fluorometric assay. The inhibitory activity against a panel of MMPs and ADAM10/17 was determined as well to assess their selectivity profile.
(RFU). Percent of inhibition was calculated from control reactions without the inhibitor. IC50 was determined using the formula: v i/v o = 1/(1 + [I]/ IC50), where v i is the initial velocity of substrate cleavage in the presence of the inhibitor at concentration [I] and v o is the initial velocity in the absence of the inhibitor. Results were analyzed using SoftMax Pro software (version 5.4.3, Molecular Devices, Sunnyvale, CA) and Prism Software version 5.0 (GraphPad Software, Inc., La Jolla, CA, USA).
ADAM8 and ADAM17 inhibition assays
Recombinant ADAM8 and ADAM17 (kind gift of Franka Scharfenberg, University of Kiel) were diluted in assay buffer (25 mM Tris HCl, pH 8.0. 6x10-4 % Brij, 10 mM CaCl2, 10 mM ZnCl2) to a working concentration of 250 ng and incubated with inhibitors for 45 min in a total volume of 50 µL.
The fluorescent substrate PepDAB1310 was added in a concentration of 10 µM (in a volume of 50 µL). […]

T1 sequence (P14780 107-707 limits assumed, species assumed): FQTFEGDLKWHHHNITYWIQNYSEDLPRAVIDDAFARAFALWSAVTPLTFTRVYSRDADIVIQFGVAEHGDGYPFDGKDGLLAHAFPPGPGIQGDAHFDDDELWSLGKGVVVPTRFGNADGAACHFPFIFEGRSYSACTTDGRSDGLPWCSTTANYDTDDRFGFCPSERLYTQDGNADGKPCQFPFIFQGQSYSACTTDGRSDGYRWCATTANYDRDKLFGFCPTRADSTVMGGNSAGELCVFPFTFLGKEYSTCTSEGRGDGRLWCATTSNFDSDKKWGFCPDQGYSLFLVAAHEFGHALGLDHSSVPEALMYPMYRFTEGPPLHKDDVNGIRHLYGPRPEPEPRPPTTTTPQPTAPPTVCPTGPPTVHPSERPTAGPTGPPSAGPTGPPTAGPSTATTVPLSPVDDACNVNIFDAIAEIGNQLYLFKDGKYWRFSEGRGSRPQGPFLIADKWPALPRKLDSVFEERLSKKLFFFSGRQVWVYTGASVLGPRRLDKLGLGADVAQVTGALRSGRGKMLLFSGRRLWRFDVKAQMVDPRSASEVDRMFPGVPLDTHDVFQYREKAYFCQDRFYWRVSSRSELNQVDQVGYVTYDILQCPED

SMILES | IC50 (MMP-9) [µM] | IC50 (human recombinant ADAM8) [µM] | Selectivity for ADAM8 over ADAM10 (human recombinant ADAM8; ratio of IC50 values ADAM10/ADAM8) [fold] | Times less active than compound 1 on ADAM8 (human recombinant ADAM8; ratio of ADAM8 IC50 values) [times]
O=C(CCCNC(=O)c1cccc(C(=O)NCCCC(=O)NCCC[C@@H](NS(=O)(=O)c2ccc(OCc3cc(Br)cc(Br)c3)cc2)C(=O)NO)c1)NCCC[C@@H](NS(=O)(=O)c1ccc(OCc2cc(Br)cc(Br)c2)cc1)C(=O)NO [Compound 1] | 3.32 | 0.041 | 740 | –
O=C(NCCC[C@@H](NS(=O)(=O)c1ccc(OCc2cc(Br)cc(Br)c2)cc1)C(=O)NO)c1cccc(C(=O)NCCC[C@@H](NS(=O)(=O)c2ccc(OCc3cc(Br)cc(Br)c3)cc2)C(=O)NO)c1 [Compound 2] | 8.8 | 0.073 | – | –
O=C(NCCC[C@@H](NS(=O)(=O)c1ccc(OCc2cc(Br)cc(Br)c2)cc1)C(=O)NO)NCCC[C@@H](NS(=O)(=O)c1ccc(OCc2cc(Br)cc(Br)c2)cc1)C(=O)NO [Compound 3] | 13.5 | 0.567 | – | 14
NC(=O)NCCC[C@@H](NS(=O)(=O)c1ccc(OCc2cc(Br)cc(Br)c2)cc1)C(=O)NO [JG26, reference compound] | 1.63 | 0.012 | – | –
